Reference: paper PMC6858952 (Clinical cancer research : an official journal of the …, 2019)
pEC50: −log10 of the molar value.

What was measured:
[1] = tested on: mouse tumor organoids (mT); assay: Organoid cytotoxicity assay; type: cell-based; conditions: 72 h, read-out: EC50 mT
[2] = tested on: hT3 organoid orthotopic xenografts in NSG mice; assay: Orthotopic xenografts of human tumor organoids, 7-day trial; type: in vivo, mouse
[3] = tested on: human organoids from normal pancreata (hN); assay: Organoid cytotoxicity assay; type: cell-based; conditions: 72 h, read-out: EC50 hN
[4] = tested on: mouse organoids from normal pancreata (mN); assay: Organoid cytotoxicity assay; type: cell-based; conditions: 72 h, read-out: EC50 mN
[5] = tested on: KPC mice (pancreatic ductal adenocarcinoma); assay: Survival study in tumor-bearing KPC mice; type: in vivo, mouse
[6] = Intratumoral gemcitabine pharmacokinetic analysis; type: in vivo, mouse; conditions: KPC tumors, with versus without MEKi and AKTi

Row | Compound | pEC50 [1] | cell death by CC3 IHC (in words) [2] | cell proliferation by Ki67 IHC (in words) [2] | pEC50 [3] | pEC50 [4] | survival (in words) [5] | tumor growth (in words) [5] | intratumoral concentration of Gem and its metabolites [6]
1 | CCOc1cc2ncc(C#N)c(Nc3ccc(OCc4ccccn4)c(Cl)c3)c2cc1NC(=O)/C=C/CN(C)C [ERBBi, neratinib] | 5.92 | no effect on cell death | reduced cell proliferation |  |  |  |  | 
2 | NC1(c2ccc(-c3nc4ccn5c(=O)[nH]nc5c4cc3-c3ccccc3)cc2)CCC1 [AKTi, MK2206] |  |  |  | 4.15 | 6.85 | without extension in survival | reduced tumor growth | 
3 | Nc1ccn([C@@H]2O[C@H](CO)[C@@H](O)C2(F)F)c(=O)n1 [Gem, gemcitabine] |  |  |  |  |  | did not significantly impact | did not significantly impact | no differences in intratumoral concentration
4 | Cn1cnc2c(F)c(Nc3ccc(Br)cc3Cl)c(C(=O)NOCCO)cc21 [MEKi, selumetinib] |  | significantly increased | did not have any significant impact | 4.92 | 5.70 | did not significantly impact | did not significantly impact | 
